In patent EP4755888A1 (ILAb Co., Ltd., priority 2023, dated 2025) one finds IC50 data, which are given here for 19 molecules.

For the test, the target named is PD-1/PD-L1 (Homo sapiens, UniProt Q9NZQ7). Kind of test: TR-FRET PD-1/PD-L1 binding inhibition at the molecular level (free proteins). The settings on record: Tag1-PD-L1 and Tag2-PD-1 proteins, twelve concentrations from 200 nM, 2 hours at room temperature, read-out: FRET assay (IC50). Here is the method: In order to evaluate the inhibitory activity of the compounds synthesized according to the above Preparation Examples against PD-1/PD-L1 molecules in a free protein state,a TR-FRET (Time-Resolved Fluorescence Energy Transfer) experimetn was performed as described below.
Chain of PD-1/PD-L1 (Q9NZQ7 19-238 limits assumed): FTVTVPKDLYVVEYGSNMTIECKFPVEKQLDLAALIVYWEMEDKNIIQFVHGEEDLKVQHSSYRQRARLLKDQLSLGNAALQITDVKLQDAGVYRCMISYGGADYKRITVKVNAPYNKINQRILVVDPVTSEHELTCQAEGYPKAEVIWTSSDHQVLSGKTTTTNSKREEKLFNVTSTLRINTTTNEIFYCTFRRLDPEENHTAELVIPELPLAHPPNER
Specifically, the compounds were prepared in a 96-well plate by serial dilution starting from 200 nM with 1/2 dilutions to obtain a total of twelve concentrations, and 2 µL of each compound solution was added to a 384-well plate. Thereafter, Tag1-PD-L1 protein and Tag2-PD-1 protein were each prepared at a 1x concentration, mixed at a ratio of 1:1, and 8 µL of the mixed solution was added to each well of the 384-well plate containing the compounds. Anti-Tag1 Eu Cryptate reagent and Anti-Tag2 XL665 antibody were each prepared at a 1* concentration, mixed at a ratio of 1:1, and 10 µL of the mixed solution was added to each well of the 384-well plate containing the compounds and proteins, followed by incubation at room temperature for 2 hours. Upon completion of the reaction, fluorescence signals at wavelengths of 620 nm and 665 nm were measured using a microplate reader.
For `O=C(Nc1cccc(-c2cccc(Nc3nc(C(F)F)nc4cc(CN5CC[C@@H](O)C5)cnc34)c2Cl)c1Cl)c1cc2n(n1)CCCC2NCCO` (stereo partly drawn) [Compound 141, N-(2,2'-dichloro-3'-((2-(difluoromethyl)-7-(((R)-3-hydroxypyrrolidin-1-yl)methyl)pyrido[3,2-d]pyrimidin-4-yl)amino)-[1,1'-biphenyl]-3-yl)-4-((2-hydroxyethyl)amino)-4,5,6,7-tetrahydropyrazolo[1,5-a]pyridine-2-carboxamide], the IC50 (commonly the point on the concentration scale where inhibition reaches its midpoint) is 10 to 100 nM.

As to `Cc1c(NC(=O)c2cc3n(n2)CCCC3N2CC[C@@H](O)C2)cccc1-c1cccc(-c2cc3n(n2)CCCC3NCCO)c1C` (stereo partly drawn) [Compound 160, N-(3'-(4-((2-hydroxyethyl)amino)-4,5,6,7-tetrahydropyrazolo[1,5-a]pyridin-2-yl)-2,2'-dimethyl-[1,1'-biphenyl]-3-yl)-4-((R)-3-hydroxypyrrolidin-1-yl)-4,5,6,7-tetrahydropyrazolo[1,5-a]pyridine-2-carboxamide], the IC50 lay within 10 to 100 nM.

Turning to `Cn1c(C(=O)Nc2cccc(-c3cccc(NC(=O)c4cc5n(n4)CCCC5NCC(=O)O)c3Cl)c2Cl)nc2c1CCN(CCC13CCC(C(=O)O)(CC1)C3)C2` (stereo not shown) [Compound 56, 4-(2-(2-((3'-(4-((carboxymethyl)amino)-4,5,6,7-tetrahydropyrazolo[1,5-a]pyridine-2-carboxamido)-2,2'-dichloro-[1,1'-biphenyl]-3-yl)carbamoyl)-1-methyl-6,7-dihydro-1H-imidazo[4,5-c]pyridin-5(4H)-yl)ethyl)bicyclo[2.2.1]heptane-1-carboxylic acid], the concentration for half-maximal inhibition (IC50) was less than 10 nM.

For `O=C(Nc1cccc(-c2cccc(NC(=O)c3cc4n(n3)CCCC4N3CC[C@@H](O)C3)c2Cl)c1Cl)c1ccc(CN2CC[C@@H](O)C2)cn1` (stereo partly drawn) [Compound 101, N-(2,2'-dichloro-3'-(5-(((R)-3-hydroxypyrrolidin-1-yl)methyl)picolinamido)-[1,1'-biphenyl]-3-yl)-4-((R)-3-hydroxypyrrolidin-1-yl)-4,5,6,7-tetrahydropyrazolo[1,5-a]pyridine-2-carboxamide], the IC50 was in the range of 10 to 100 nM.

Consider `CN(C)[C@H]1CCCn2nc(C(=O)Nc3cccc(-c4cccc(NC(=O)c5cc6n(n5)CCC[C@@H]6N(C)C)c4Cl)c3Cl)cc21` [Compound 311, (4S,4'S)-N,N'-(2,2'-dichloro-[1,1'-biphenyl]-3,3'-diyl)bis(4-(dimethylamino)-4,5,6,7-tetrahydropyrazolo[1,5-a]pyridine-2-carboxamide)], for which the IC50 is less than 10 nM.

Take `O=C(O)CNC1CCCn2nc(C(=O)Nc3cccc(-c4cccc(NC(=O)c5ncc(CN6CC[C@@H](O)C6)cc5F)c4Cl)c3Cl)cc21` (stereo partly drawn) [Compound 204, 2-((2-((2,2'-dichloro-3'-(3-fluoro-5-(((R)-3-hydroxypyrrolidin-1-yl)methyl)picolinamido)-[1,1'-biphenyl]-3-yl)carbamoyl)-4,5,6,7-tetrahydropyrazolo[1,5-a]pyridin-4-yl)amino)acetic acid]: the half-inhibitory concentration (IC50) is less than 10 nM.

On to `O=C(Nc1cccc(-c2cccc(NC(=O)c3cc4n(n3)CCCC4N3CC[C@@H](O)C3)c2Cl)c1Cl)c1ccc(CNCCO)cn1` (stereo partly drawn) [Compound 85, N-(2,2'-dichloro-3'-(5-(((2-hydroxyethyl)amino)methyl)picolinamido)-[1,1'-biphenyl]-3-yl)-4-((R)-3-hydroxypyrrolidin-1-yl)-4,5,6,7-tetrahydropyrazolo[1,5-a]pyridine-2-carboxamide], for which the IC50 is less than 10 nM.

As to `CC(C)(N[C@H]1CCCn2nc(C(=O)Nc3cccc(-c4cccc(Nc5nc(C(F)(F)F)nc6cc(CN7CC[C@@H](O)C7)cnc56)c4Cl)c3Cl)cc21)C(=O)O` [Compound 340, 2-(((S)-2-((2,2'-dichloro-3'-((7-(((R)-3-hydroxypyrrolidin-1-yl)methyl)-2-(trifluoromethyl)pyrido[3,2-d]pyrimidin-4-yl)amino)-[1,1'-biphenyl]-3-yl)carbamoyl)-4,5,6,7-tetrahydropyrazolo[1,5-a]pyridin-4-yl)amino)-2-methylpropanoic acid], the IC50 was in the range of 10 to 100 nM.

As to `COc1cc(-c2cccc(-c3cccc(NC(=O)c4cc5n(n4)CCCC5O)c3C)c2C)cc(F)c1CNCCNC(C)=O` (stereo not shown) [Compound 112-1, N-(4"-(((2-acetamidoethyl)amino)methyl)-3"-fluoro-5"-methoxy-2,2'-dimethyl-[1,1':3',1"-terphenyl]-3-yl)-4-hydroxy-4,5,6,7-tetrahydropyrazolo[1,5-a]pyridine-2-carboxamide], the IC50 is less than 10 nM.

Regarding `CC(=O)NCCN[C@H]1CCCn2nc(C(=O)Nc3cccc(-c4cccc(NC(=O)c5ccc(CNCCO)cn5)c4Cl)c3Cl)cc21` [Compound 241, (S)-4-((2-acetamidoethyl)amino)-N-(2,2'-dichloro-3'-(5-(((2-hydroxyethyl)amino)methyl)picolinamido)-[1,1'-biphenyl]-3-yl)-4,5,6,7-tetrahydropyrazolo[1,5-a]pyridine-2-carboxamide], the IC50 was less than 10 nM.

As for `Cc1c(Nc2nccc3cc(CN4CC[C@@H](O)C4)cnc23)cccc1-c1cccc(NC(=O)c2cc3n(n2)CCCC3N2CC[C@@H](O)C2)c1Cl` (stereo partly drawn) [Compound 29, N-(2-chloro-3'-((3-(((R)-3-hydroxypyrrolidin-1-yl)methyl)-1,7-naphthyridin-8-yl)amino)-2'-methyl-[1,1'-biphenyl]-3-yl)-4-((R)-3-hydroxypyrrolidin-1-yl)-4,5,6,7-tetrahydropyrazolo[1,5-a]pyridine-2-carboxamide], the IC50 was less than 10 nM.

In the case of `O=C(Nc1cccc(-c2cccc(NC(=O)c3cc4n(n3)CCCC4N3CC[C@@H](C(=O)O)C3)c2Cl)c1Cl)c1ccc(CNCCO)c(F)n1` (stereo partly drawn) [Compound 199, (3R)-1-(2-((2,2'-dichloro-3'-(6-fluoro-5-(((2-hydroxyethyl)amino)methyl)picolinamido)-[1,1'-biphenyl]-3-yl)carbamoyl)-4,5,6,7-tetrahydropyrazolo[1,5-a]pyridin-4-yl)pyrrolidine-3-carboxylic acid], the IC50 was less than 10 nM.

In the case of `Cc1c(NC(=O)c2ccc(CN3CC[C@@H](O)C3)cn2)cccc1-c1cccc(NC(=O)c2cc3n(n2)CCCC3NCCO)c1C` (stereo partly drawn) [Compound 91, 4-((2-hydroxyethyl)amino)-N-(3'-(5-(((R)-3-hydroxypyrrolidin-1-yl)methyl)picolinamido)-2,2'-dimethyl-[1,1'-biphenyl]-3-yl)-4,5,6,7-tetrahydropyrazolo[1,5-a]pyridine-2-carboxamide], the concentration for half-maximal inhibition (IC50) is less than 10 nM.

`Cc1c(NC(=O)c2cc3n(n2)CCCC3NCCO)cccc1-c1cccc(NC(=O)c2nc3c(s2)CN(C)CC3)c1C` (stereo not shown) [Compound 147, N-(3'-(4-((2-hydroxyethyl)amino)-4,5,6,7-tetrahydropyrazolo[1,5-a]pyridine-2-carboxamido)-2,2'-dimethyl-[1,1'-biphenyl]-3-yl)-5-methyl-4,5,6,7-tetrahydrothiazolo[5,4-c]pyridine-2-carboxamide]: the concentration for half-maximal inhibition (IC50) was less than 10 nM.

For `COc1cc(-c2cccc(-c3cccc(NC(=O)c4cc5n(n4)CCCC5N4CC[C@@H](O)C4)c3Cl)c2Cl)cc(F)c1CNC[C@@H]1CCC(=O)N1` (stereo partly drawn) [Compound 127, N-(2,2'-dichloro-3"-fluoro-5"-methoxy-4"-(((((S)-5-oxopyrrolidin-2-yl)methyl)amino)methyl)-[1,1':3',1"-terphenyl]-3-yl)-4-((R)-3-hydroxypyrrolidin-1-yl)-4,5,6,7-tetrahydropyrazolo[1,5-a]pyridine-2-carboxamide], the IC50 lay within 10 to 100 nM.

Regarding `O=C(Nc1cccc(-c2cccc(Nc3nccc4cc(CN5CC[C@@H](O)C5)cnc34)c2Cl)c1Cl)c1cc2n(n1)CCCN2CCO` [Compound 322, (R)-N-(2,2'-dichloro-3'-((3-((3-hydroxypyrrolidin-1-yl)methyl)-1,7-naphthyridin-8-yl)amino)-[1,1'-biphenyl]-3-yl)-4-(2-hydroxyethyl)-4,5,6,7-tetrahydropyrazolo[1,5-a]pyrimidine-2-carboxamide], the IC50 was in the range of 10 to 100 nM.

For `O=C(Nc1cccc(-c2cccc(Nc3nc(C(F)F)nc4cccnc34)c2Cl)c1Cl)c1cc2n(n1)CCC[C@@H]2N1CCC(O)CC1` [Compound 305, (S)-N-(2,2'-dichloro-3'-((2-(difluoromethyl)pyrido[3,2-d]pyrimidin-4-yl)amino)-[1,1'-biphenyl]-3-yl)-4-(4-hydroxypiperidin-1-yl)-4,5,6,7-tetrahydropyrazolo[1,5-a]pyridine-2-carboxamide], the IC50 is 10 to 100 nM.

Turning to `CC(C)(N[C@H]1CCCn2nc(C(=O)Nc3cccc(-c4cccc(Nc5nc(C(F)(F)F)nc6cccnc56)c4Cl)c3Cl)cc21)C(=O)O` [Compound 275, (S)-2-((2-((2,2'-dichloro-3'-((2-(trifluoromethyl)pyrido[3,2-d]pyrimidin-4-yl)amino)-[1,1'-biphenyl]-3-yl)carbamoyl)-4,5,6,7-tetrahydropyrazolo[1,5-a]pyridin-4-yl)amino)-2-methylpropanoic acid], the IC50 lay in the range of 10 to 100 nM.

As for `CC(C)(NC1CCCn2nc(C(=O)Nc3cccc(-c4cccc(Nc5nccc6cc(CN7CC[C@@H](O)C7)cnc56)c4Cl)c3Cl)cc21)C(=O)O` (stereo partly drawn) [Compound 27, 2-((2-((2,2'-dichloro-3'-((3-(((R)-3-hydroxypyrrolidin-1-yl)methyl)-1,7-naphthyridin-8-yl)amino)-[1,1'-biphenyl]-3-yl)carbamoyl)-4,5,6,7-tetrahydropyrazolo[1,5-a]pyridin-4-yl)amino)-2-methylpropanoic acid], the IC50 is 10 to 100 nM.
